Assay in all cases: relative viability (nuclei count vs DMSO), 5 days (fraction); higher = more cells survive
Compound in one test: CC1(COc2ccc3c(c2)ncn3-c2ccc3cccc(N4CCC(N)CC4)c3n2)COC1 [Crenolanib]
In outline: (§1)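 MetaXpress counted nuclei in 4× images of lung cancer cell lines that had been fixed, permeabilised and Hoechst-stained in one step. Before that, cells in 1536-well plates were kept overnight at 37 °C, pinned with five √10-spaced library-drug doses on vehicle-anchored plates, and cultured 5 days without medium change. Viability takes treated-well nuclei over vehicle-well nuclei and uses the median across plates. Plates were accepted only at control CV below 25% and at least one doubling.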

Compound in another test: O=C1NC(=O)[C@@H](c2cn3c4c(cccc24)CCC3)[C@@H]1c1c[nH]c2ccccc12 [Tivantinib]
In a few lines: as §1

Compound in the test “Crenolanib + Trametinib”: CC1(COc2ccc3c(c2)ncn3-c2ccc3cccc(N4CCC(N)CC4)c3n2)COC1 [Crenolanib] + CC(=O)Nc1cccc(-n2c(=O)n(C3CC3)c(=O)c3c(Nc4ccc(I)cc4F)n(C)c(=O)c(C)c32)c1 [Trametinib] (partner 0.02 µM)
In outline: (§2)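 Relative viability was taken as the ratio of nuclei in treated wells to nuclei in vehicle wells. Lung cancer cell lines in 1536-well plates received compounds by pin tool one day after seeding, either one drug alone or a fixed anchor-drug dose plus five library-drug doses (not always all listed) in √10 steps. Nuclei were counted on 4× images after 5 days of treatment, and values are medians of duplicate plates.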

Compound in the test “Tivantinib + Navitoclax”: O=C1NC(=O)[C@@H](c2cn3c4c(cccc24)CCC3)[C@@H]1c1c[nH]c2ccccc12 [Tivantinib] + CC1(C)CCC(c2ccc(Cl)cc2)=C(CN2CCN(c3ccc(C(=O)NS(=O)(=O)c4ccc(N[C@H](CCN5CCOCC5)CSc5ccccc5)c(S(=O)(=O)C(F)(F)F)c4)cc3)CC2)C1 [Navitoclax] (partner 0.5 µM)
In outline: as §2

This note sets out measurements from the supplement of paper PMC10307832.

As for LOU-NH91, the relative viability with Crenolanib (0.01 µM) was 1.02; in the test with Crenolanib (0.03162 µM), 0.939; in the test with Crenolanib (0.1 µM) it was 0.929; in the test with Crenolanib (0.3162 µM) it was 0.891; with Crenolanib (1 µM), 0.906; with Tivantinib (0.01 µM), 0.932. Besides, the relative viability with Tivantinib (0.03162 µM) worked out at 0.946; in the test with Tivantinib (0.1 µM), 1.02; with Tivantinib (0.3162 µM) it was 0.747; with Crenolanib + Trametinib (first compound 0.01 µM), 0.826; in the test with Crenolanib + Trametinib (first compound 0.03162 µM) it was 0.793; in the test with Crenolanib + Trametinib (first compound 0.1 µM) it was 0.774. The relative viability came to 0.879 with Crenolanib + Trametinib (first compound 0.3162 µM); 0.788 with Crenolanib + Trametinib (first compound 1 µM); 0.651 in the test with Tivantinib + Navitoclax (first compound 0.01 µM); 0.637 in the test with Tivantinib + Navitoclax (first compound 0.03162 µM); 0.622 with Tivantinib + Navitoclax (first compound 0.1 µM); 0.355 with Tivantinib + Navitoclax (first compound 0.3162 µM).

H3255: the relative viability stood at 1.02 in the test with Crenolanib (0.01 µM); 0.935 in the test with Crenolanib (0.03162 µM); 0.929 with Crenolanib (0.1 µM); 0.984 with Crenolanib (0.3162 µM); 0.918 with Crenolanib (1 µM); 0.971 with Tivantinib (0.01 µM). Further, the relative viability in the test with Tivantinib (0.03162 µM) was determined as 0.934; with Tivantinib (0.1 µM) it was 1; in the test with Crenolanib + Trametinib (first compound 0.01 µM), 0.646; in the test with Crenolanib + Trametinib (first compound 0.03162 µM), 0.612; with Crenolanib + Trametinib (first compound 0.1 µM), 0.639; with Crenolanib + Trametinib (first compound 0.3162 µM), 0.754. Besides, the relative viability with Crenolanib + Trametinib (first compound 1 µM) was 0.627; in the test with Tivantinib + Navitoclax (first compound 0.01 µM), 0.559; with Tivantinib + Navitoclax (first compound 0.03162 µM) it was 0.564; in the test with Tivantinib + Navitoclax (first compound 0.1 µM) it was 0.508.

Regarding NCI-H1975, the relative viability with Crenolanib (0.01 µM) worked out at 1.1; with Crenolanib (0.03162 µM), 0.977; with Crenolanib (0.1 µM), 0.907; with Crenolanib (0.3162 µM) it was 0.887; with Crenolanib (1 µM), 0.838; with Tivantinib (0.01 µM), 1.02. Also, the relative viability with Tivantinib (0.03162 µM) was determined as 0.956; with Tivantinib (0.1 µM), 0.837; with Tivantinib (0.3162 µM) it was 0.825; with Crenolanib + Trametinib (first compound 0.01 µM), 0.344; with Crenolanib + Trametinib (first compound 0.03162 µM) it was 0.316; in the test with Crenolanib + Trametinib (first compound 0.1 µM) it was 0.313. Moreover, the relative viability with Crenolanib + Trametinib (first compound 0.3162 µM) stood at 0.304; with Crenolanib + Trametinib (first compound 1 µM), 0.359; with Tivantinib + Navitoclax (first compound 0.01 µM) it was 1.03; with Tivantinib + Navitoclax (first compound 0.03162 µM), 1.07; with Tivantinib + Navitoclax (first compound 0.1 µM) it was 1.12; with Tivantinib + Navitoclax (first compound 0.3162 µM), 1.16.

NCI-H3122: the relative viability with Crenolanib (0.01 µM) came to 1.02; in the test with Crenolanib (0.03162 µM), 0.989; with Crenolanib (0.1 µM), 0.98; with Crenolanib (0.3162 µM), 1.1; in the test with Crenolanib (1 µM) it was 1.1; with Tivantinib (0.01 µM), 0.986. Also, the relative viability with Tivantinib (0.03162 µM) is 1; with Tivantinib (0.1 µM), 0.923; with Tivantinib (0.3162 µM), 0.877; with Crenolanib + Trametinib (first compound 0.01 µM) it was 0.233; with Crenolanib + Trametinib (first compound 0.03162 µM), 0.21; with Crenolanib + Trametinib (first compound 0.1 µM), 0.224. For the same cell line, the relative viability with Crenolanib + Trametinib (first compound 0.3162 µM) amounted to 0.23; with Crenolanib + Trametinib (first compound 1 µM) it was 0.318; with Tivantinib + Navitoclax (first compound 0.01 µM), 1.02; with Tivantinib + Navitoclax (first compound 0.03162 µM), 0.971; with Tivantinib + Navitoclax (first compound 0.1 µM), 0.974; with Tivantinib + Navitoclax (first compound 0.3162 µM), 1.01.

Take NCI-H441: the relative viability amounted to 1.08 in the test with Crenolanib (0.01 µM); 1.11 with Crenolanib (0.03162 µM); 0.987 in the test with Crenolanib (0.1 µM); 1.13 with Crenolanib (0.3162 µM); 0.928 with Crenolanib (1 µM); 0.902 in the test with Tivantinib (0.01 µM). For the same cell line, the relative viability with Tivantinib (0.03162 µM) worked out at 1.22; with Tivantinib (0.1 µM) it was 0.9; with Tivantinib (0.3162 µM), 0.939; with Crenolanib + Trametinib (first compound 0.01 µM) it was 0.537; in the test with Crenolanib + Trametinib (first compound 0.03162 µM), 0.479; in the test with Crenolanib + Trametinib (first compound 0.1 µM), 0.425. For the same cell line, the relative viability with Crenolanib + Trametinib (first compound 0.3162 µM) came to 0.485; in the test with Crenolanib + Trametinib (first compound 1 µM) it was 0.408; with Tivantinib + Navitoclax (first compound 0.01 µM) it was 0.737; with Tivantinib + Navitoclax (first compound 0.03162 µM), 0.869; with Tivantinib + Navitoclax (first compound 0.3162 µM), 0.439.
